Experiments:
Format in all cases: cell-based
[1] = test system: Enterococcus faecalis (EFA); assay: MIC, two-fold agar dilution (CLSI), clinical isolates
Procedure, shortened: (§1)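 Following the American Clinical and Laboratory Standards Institute procedure, agar two-fold dilution served to determine minimum inhibitory concentrations.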

[2] = test system: Enterococcus faecium (EFM); assay: as above
Procedure, shortened: as §1

[3] = test system: Escherichia coli (including ESBLs, non-ESBLs); assay: as above
Procedure, shortened: as §1

[4] = test system: Moraxella catarrhalis (BCA); assay: as above
Procedure, shortened: as §1

[5] = test system: Streptococcus pneoumoniae (SPN); assay: as above
Procedure, shortened: as §1

[6] = test system: methicillin-resistant Staphylococcus aureus (MRSA); assay: as above
Procedure, shortened: as §1

[7] = test system: methicillin-resistant Staphylococcus epidermidis (MRSE); assay: as above
Procedure, shortened: as §1

[8] = test system: methicillin-sensitive Staphylococcus aureus (MSSA); assay: as above
Procedure, shortened: as §1

[9] = test system: methicillin-sensitive Staphylococcus epidermidis (MSSE); assay: as above
Procedure, shortened: as §1

[10] = test system: HCT-116 colorectal cancer cell line; assay: CCK-8 proliferation inhibition; conditions: Homo sapiens, HCT-116, 72 h, concentration of 30 μM; 72 hours; CCK-8; read-out: HCT116 inhibition rate/%
Procedure, shortened: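 Proliferation over 72 hours of compound treatment was measured with CCK-8 against a 1‰ DMSO control.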

CCCC[C@H](CC(=O)NO)C(=O)N1CC2(CC2)C[C@H]1C(=O)Nc1cnn(CCN(C)C)c1 [Example 52, (S)—N-(1-(2-(dimethylamino)ethyl)-1H-pyrazol-4-yl)-5-((R)-2-(2-(hydroxyamino)-2-oxoethyl)hexanoyl)-5-spiro[2.4]heptane-6-carboxamide] showed an Anti-bacterial activity (MIC), strain EFA 15-1 ([1]; clinical isolate EFA 15-1) greater than 32 µg/mL, an Anti-bacterial activity (MIC), strain EFA 15-2 ([1]; clinical isolate EFA 15-2) greater than 32 µg/mL and an Anti-bacterial activity (MIC), strain EFA 15-3 ([1]; clinical isolate EFA 15-3) greater than 32 µg/mL. The Anti-bacterial activity (MIC), strain EFA 15-4 ([1]; clinical isolate EFA 15-4) was greater than 32 µg/mL, the Anti-bacterial activity (MIC), strain EFA 15-5 ([1]; clinical isolate EFA 15-5) was greater than 32 µg/mL and the Anti-bacterial activity (MIC), strain EFA 15-6 ([1]; clinical isolate EFA 15-6) was greater than 32 µg/mL. For the same compound, the Anti-bacterial activity (MIC), strain EFA 15-9 ([1]; clinical isolate EFA 15-9) was greater than 32 µg/mL, the Anti-bacterial activity (MIC), strain EFM 15-1 ([2]; clinical isolate EFM 15-1) was greater than 32 µg/mL and the Anti-bacterial activity (MIC), strain EFM 15-2 ([2]; clinical isolate EFM 15-2) was greater than 32 µg/mL. It also gave an Anti-bacterial activity (MIC), strain EFM 15-3 ([2]; clinical isolate EFM 15-3) greater than 32 µg/mL, an Anti-bacterial activity (MIC), strain EFM 15-4 ([2]; clinical isolate EFM 15-4) greater than 32 µg/mL and an Anti-bacterial activity (MIC), strain EFM 15-5 ([2]; clinical isolate EFM 15-5) of 16 µg/mL. For the same compound, the Anti-bacterial activity (MIC), strain EFM 15-6 ([2]; clinical isolate EFM 15-6) was 16 µg/mL, the Anti-bacterial activity (MIC), strain ECO+ 15-1 ([3]; clinical isolate ECO+ 15-1) was greater than 32 µg/mL and the Anti-bacterial activity (MIC), strain ECO+ 15-2 ([3]; clinical isolate ECO+ 15-2) was greater than 32 µg/mL. It also gave an Anti-bacterial activity (MIC), strain ECO+ 15-3 ([3]; clinical isolate ECO+ 15-3) greater than 32 µg/mL, an Anti-bacterial activity (MIC), strain ECO+ 15-4 ([3]; clinical isolate ECO+ 15-4) greater than 32 µg/mL and an Anti-bacterial activity (MIC), strain ECO− 15-1 ([3]; clinical isolate ECO− 15-1) greater than 32 µg/mL. It also gave an Anti-bacterial activity (MIC), strain ECO− 15-2 ([3]; clinical isolate ECO− 15-2) greater than 32 µg/mL, an Anti-bacterial activity (MIC), strain ECO− 15-3 ([3]; clinical isolate ECO− 15-3) greater than 32 µg/mL and an Anti-bacterial activity (MIC), strain ECO− 15-4 ([3]; clinical isolate ECO− 15-4) greater than 32 µg/mL. For the same compound, the Anti-bacterial activity (MIC), strain BCA 14-1 ([4]; clinical isolate BCA 14-1) was greater than 32 µg/mL, the Anti-bacterial activity (MIC), strain BCA 14-4 ([4]; clinical isolate BCA 14-4) was greater than 32 µg/mL and the Anti-bacterial activity (MIC), strain BCA 14-5 ([4]; clinical isolate BCA 14-5) was greater than 32 µg/mL. For the same compound, the Anti-bacterial activity (MIC), strain BCA 14-6 ([4]; clinical isolate BCA 14-6) was greater than 32 µg/mL, the Anti-bacterial activity (MIC), strain BCA 14-7 ([4]; clinical isolate BCA 14-7) was greater than 32 µg/mL and the Anti-bacterial activity (MIC), strain BCA 14-8 ([4]; clinical isolate BCA 14-8) was greater than 32 µg/mL. The Anti-bacterial activity (MIC), strain BCA 14-10 ([4]; clinical isolate BCA 14-10) was greater than 32 µg/mL, the Anti-bacterial activity (MIC), strain SPN 16-2 ([5]; clinical isolate SPN 16-2) was 8 µg/mL and the Anti-bacterial activity (MIC), strain SPN 16-4 ([5]; clinical isolate SPN 16-4) was 8 µg/mL. For the same compound, the Anti-bacterial activity (MIC), strain MRSA 15-1 ([6]; clinical isolate MRSA 15-1) was greater than 32 µg/mL, the Anti-bacterial activity (MIC), strain MRSA 15-2 ([6]; clinical isolate MRSA 15-2) was greater than 32 µg/mL and the Anti-bacterial activity (MIC), strain MRSA 15-3 ([6]; clinical isolate MRSA 15-3) was greater than 32 µg/mL. It also gave an Anti-bacterial activity (MIC), strain MRSA 15-4 ([6]; clinical isolate MRSA 15-4) greater than 32 µg/mL, an Anti-bacterial activity (MIC), strain MRSE 15-1 ([7]; clinical isolate MRSE 15-1) greater than 32 µg/mL and an Anti-bacterial activity (MIC), strain MRSE 15-2 ([7]; clinical isolate MRSE 15-2) greater than 32 µg/mL. For the same compound, the Anti-bacterial activity (MIC), strain MRSE 15-3 ([7]; clinical isolate MRSE 15-3) was greater than 32 µg/mL, the Anti-bacterial activity (MIC), strain MRSE 15-7 ([7]; clinical isolate MRSE 15-7) was greater than 32 µg/mL and the Anti-bacterial activity (MIC), strain MSSA 15-3 ([8]; clinical isolate MSSA 15-3) was greater than 32 µg/mL. The Anti-bacterial activity (MIC), strain MSSA 15-4 ([8]; clinical isolate MSSA 15-4) was greater than 32 µg/mL, the Anti-bacterial activity (MIC), strain MSSA 15-5 ([8]; clinical isolate MSSA 15-5) was greater than 32 µg/mL and the Anti-bacterial activity (MIC), strain MSSA 15-6 ([8]; clinical isolate MSSA 15-6) was greater than 32 µg/mL. It also gave an Anti-bacterial activity (MIC), strain MSSE 15-3 ([9]; clinical isolate MSSE 15-3) greater than 32 µg/mL, an Anti-bacterial activity (MIC), strain MSSE 15-4 ([9]; clinical isolate MSSE 15-4) greater than 32 µg/mL and an Anti-bacterial activity (MIC), strain MSSE 15-5 ([9]; clinical isolate MSSE 15-5) greater than 32 µg/mL. The Anti-bacterial activity (MIC), strain MSSE 15-6 ([9]; clinical isolate MSSE 15-6) was greater than 32 µg/mL and the inhibition at 30 µM [10] was -1%.

From patent US10738028B2, “Spiro three-membered ring, spiro five-membered ring peptide deformylase inhibitor and use thereof in antibacteria and anti-tumor” (priority 2016, dated 2020)
